Source: patent US20230129651A1, “HAIRPIN STRUCTURE NUCLEIC ACID MOLECULES CAPABLE OF MODULATING TARGET GENE EXPRESSION AND USES THEREOF” (KOREA ADVANCED INSTITUTE OF SCIENCE AND TECHNOLOGY, priority 2021, published 2023)
Entries after “also recorded” stand apart in the source; their conditions may differ.

Legend:
Mcl-1 protein = experiment: Western blotting of Mcl-1 protein in Hela-141 cells; type: cell-based; conditions: 5 to 120 nM
Description: (§1) miRNA triggers were transfected into cells in the same manner as in Reference Example 4. After 72 hours, the cells were collected using a cell scraper and lysed with a RIPA buffer (NaCl 150 mM, EDTA 5 mM, Tris 50 mM, NP-40 1.0%, sodium deoxycholate 0.5%, SDS 0.1%). The cell lysate was sonicated 15 times, each for 20 sec, with a halt for 30 sec every sonication. Following centrifugation at 5,000 g for 5 min, the supernatant was taken and used to extract proteins therefrom. A total of 30-40 μg of protein sample was separated in 10-15% SDS-PAGE gel and transferred onto a PVDF membrane through a semi-dry blotting system. The membrane was blocked for 1 hour in 5% skimmed milk and incubated for 2 hours with a 1,000-fold dilution of a primary antibody in, 1% skimmed milk. […] The membrane incubated with the secondary antibody was washed three times with 1×PBST for 10 min each wash, and then reacted with Clarity Western ECL Substrate (#1705061, Bio-Rad), after which images were obtained and analyzed using ChemiDoc (Bio-rad, Hercules, USA).
A linear miRNA trigger (Mcl-1-141-141; Table 15) that could bind to miR-141 and target mcl-1 was prepared while a linear miRNA trigger (Luc-141-141; Table 9) that could bind to miR-141 and target Luc (luciferase) was used as a control. […] Then, proteins were extracted from the Hela-141 cells and quantitatively analyzed for Mcl-1 protein level by western blotting. […]

Hela-141 cells = experiment: Cell viability / apoptosis of Hela-141 cells after transfection; type: cell-based
Description: (§2) The miRNA triggers were assayed for cytotoxicity and apoptosis induction, using the CCK-8 (Cell Counting Kit-8) (Dojindo, Kumamoto, Japan) according to the manufacturer's instruction. Cells were incubated in 96-well plates (5×10^3 cells/well) at 37° C. for 24 hours under a 5% CO2 atmosphere, followed by transfection. Three days after transfection, the medium was removed. A 10-fold dilution of CCK-8 solution in DMEM was added to the cells which were then incubated at 37° C. for 2 hours. After incubation, absorbance was read at 450 nm on Tecan Infinite M200 pro microplate reader (Mnnedorf, Switzerland).
(§3) The linear miRNA triggers or siRNAs (siLuc and siMcl-1) prepared above were transfected into Hela, Hela-141, and Hela-200c cells which were then measured for cell viability. The results are depicted in FIG. 15.
(§4) The hairpin miRNA triggers prepared above were transfected into Hela and Hela-141 cells which were then assayed for apoptosis. As a control, the siRNA (siMcl-1; Table 14) which can repress the expression of mcl-1 was transfected to Hela and Hela-141 cells and measured for apoptotic activity.

Hela-200c cells = experiment: Cell viability / apoptosis of Hela-200c cells after transfection; type: cell-based
Description: as §2, §3

[1] = system: breast cancer cell line MDA-MB-231; experiment: Cell viability of MDA-MB-231 after transfection; type: cell-based; conditions: Example 8-1
Description: as §2
The seven linear miRNA triggers prepared above and the positive control siRNA(siBcl-xL) capable of binding to bcL-xL were transfected into the breast cancer cell line MDA-MB-231 in which miR-222 is overexpressed. Cell viability was measured and is depicted in FIG. 32a.
Linear miRNA triggers that could bind to miR-222 and target bcl-xL and mcl-1, respectively, were prepared and transfected alone or in combination into the breast cancer cell line MDA-MB-231. Cell viability was measured and the measurements are depicted in FIG. 34. siRNAs against Mcl-1 and Bcl-xL were used as controls. Sequences are listed in Table 23 for the linear miRNA trigger prepared above, in Tables 22 and 9 for the controls Luc-Luc-Luc and luc-222-222, respectively, and in Table 13 for the siRNAs. Every nucleotide of the triggers and the controls was chemically modified with 2′-OMe.
Linear miRNA triggers that could bind to miR-141 or let7f and target Bcl-xL or Mcl-1 were prepared and transfected alone or in combination into the breast cancer cell line MDA-MB-231 which was then measured for cell viability. […]
The hairpin miRNA triggers prepared above were transfected into MDA-MB-231 and MDA-MB-453 cells which were then measured for cell viability. […]
Hairpin miRNA triggers which could bind to miR-222 or let-7f and target mcl-1 or bcl-xL were prepared and transfected into the breast cancer cell line MDA-MB-231 which was then measured for cell viability. […]

Bcl-xL = experiment: bcl-xL protein expression in MDA-MB-453 cells; type: cell-based
Description: as §1
(§5) The selected linear miRNA triggers (bcl-xL(1)_222_222 and bcl-xL(2)_222_222) were transfected into the breast cancer cell line MDA-MB-453 to which miR-222 is not endogenous. Cell viability, and the mRNA and protein expression levels of the target gene (bcl-xL) were measured and the results are depicted in FIGS. 33a to 33c.

[2] = system: breast cancer cell line MDA-MB-453; experiment: Cell viability of MDA-MB-453 after transfection; type: cell-based; conditions: miR-222 not endogenous
Description: as §2, §5

bcl-xL mRNA = bcl-xL mRNA expression in MDA-MB-453 cells; type: cell-based
Description: In the same manner as in Reference Example 4, miRNA triggers were transfected into cells. After 48 hours, total RNA was extracted using TRIzol (Thermo Fisher Scientific) according to the manufacturer's instruction. The purified RNA was treated with DNase I and then reverse transcribed in the presence of RevertAid reverse transcriptase (Thermo Fisher Scientific), with random hexamers (Thermo Fisher Scientific) serving as primers. For use in amplification of target genes, primers for target genes were added, together with the cDNA, to the SYBR Green PCR master mix (Thermo Fisher Scientific). RT-qPCR was conducted on a StepOnePlus real-time PCR system. Cq values obtained from this analysis was quantitatively analyzed based on the 2^−ΔΔC(t) method.
as §5

[3] = system: MCF-7 breast cancer cells; experiment: Cell viability of MCF-7 after transfection; type: cell-based; conditions: siRNA 60 nM
Description: as §2
An siRNA targeting bcl-2, bcl-xL, or mcl-1 was transfected into MCF-7 breast cancer cells and PANC-1 pancreatic cancer cells. By using qRT-PCR, establishment was made of a condition under which the expression of each target gene is decreased by 80% or more (transfection was performed at a concentration of 60 nM with the aid of Lipofectamine). […] Under the same condition of decreasing the expression of each target gene by 80% or more, the cells transfected with the siRNAs were measured for apoptosis, and the results are depicted in FIGS. 14a and 14b.
Linear miRNA triggers that could bind to miR-141 or let7f and target bcl-xL or mcl-1 were prepared and transfected alone or in combination into the breast cancer cell line MCF-7 which was then measured for cell viability. […]

Hela cells = experiment: Cell viability / apoptosis of Hela cells after transfection; type: cell-based
Description: as §2, §3, §4

[4] = system: miRNA-141 and PKR mRNA (2); experiment: PAGE assay of dumbbell miRNA trigger binding to miRNA and target mRNA; conditions: 100 nM each, 37° C., 1 hour
Description: To a buffer (1×PBS buffer, +5 mM MgCl2, 137 mM NaCl, 10 mM PO4, 2.7 mM KCl, 5 mM MgCl2; pH 7.4) containing 100 nM of the dumbbell miRNA trigger (DP) prepared above, 100 nM miRNA and/or 100 nM target mRNA was added, followed by incubation at 37° C. for 1 hour. Each sample was loaded to a PAGE gel and run. The results are depicted in FIG. 39b.

Molecule	apoptosis / cell viability (in words) (Hela-200c cells)	killing of breast cancer cells (cell viability) [1]	protein expression level of target bcl-xL (Bcl-xL)	cell viability [2]	mRNA expression level of target bcl-xL (bcl-xL mRNA)	further results
Mcl-1_141_141: linear miRNA trigger binding miR-141 and targeting Mcl-1 gene; SEQ ID NO 65 (110 in Table 24) (CCAUCUUUACCUCACAGUGUUACCAUCUUUACCUCACAGUGUUACCGAACUACGUAGC; all 2'-O-methyl, backbone not given here)	no significant influence on cell viability	–	–	–	–	Mcl-1 protein level compared to control Luc-141-141 (Mcl-1 protein): significantly decreased in Mcl-1 protein level; apoptosis induced (Hela-141 cells): about 40%
bcl-xL(2)_222_222: linear miRNA trigger binding miR-222 and knocking down bcl-xL; SEQ ID NO 107 (ACCCAGUAGCCAGAUGUAGCUACCCAGUAGCCAGAUGUAGCUUACCUGCCAGCCUCCUU; all 2'-O-methyl, backbone not given here)	–	effectively kill breast cancer cells	did not significantly change	did not significantly change	did not significantly change	–
siMcl-1: siRNA targeting mcl-1; SEQ ID NO 64 (AAAUUCGAUACUUCCUUCG; listed as RNA, chemistry not given here) [reference compound]	induced apoptosis	–	–	–	–	apoptosis / cell viability (in words) (Hela-141 cells): induced apoptosis; also recorded: brought about an apoptotic effect; cell viability / apoptosis after siRNA (in words) [3]: decreased in cell viability; apoptosis / cell viability (in words) (Hela cells): induced apoptosis; also recorded: brought about an apoptotic effect
bcl-xL(1)_222_222: linear miRNA trigger binding miR-222 and knocking down bcl-xL; SEQ ID NO 106 (nucleic acid, all 2'-O-methyl, backbone not given here) ACCCAGUAGCCAGAUGUAGCUACCCAGUAGCCAGAUGUAGCUUCUCCUUCCUGCCCUUCCU	–	effectively kill breast cancer cells	did not significantly change	did not significantly change	did not significantly change	–
DB_PKRS20_141: dumbbell-shaped miRNA trigger, 20-nt mRNA-binding portion, binds miRNA-141 and PKR mRNA; SEQ ID NO 130 (nucleic acid, listed as DNA, chemistry not given here) CCCCCCGAATGAGAAATACCATCTTTACCAGACAGTGTTATATTTCTCATTCCCTTCCTTNNAAGGAAGGGGGGGG	–	–	–	–	–	binding to target mRNA in the absence of the miRNA ([4]; lane 3): did not bind to a target mRNA; binding to miRNA and/or target mRNA in the presence of the miRNA ([4]; lanes 2 and 4): could bind to a miRNA and/or target mRNA only in the presence of the miRNA
